What all share (assay): DTP human tumour cell line panel, 48 h
Experiment [1] relates to SW-620 colon.
Experiment [2] concerns RPMI-8226 leukemia.
Experiment [3] relates to OVCAR-4 ovarian.
Experiment [4] deals with EKVX NSCLC.
For experiment [5], the system named is HS 578T breast.
Experiment [6] has as its system PC-3 prostate.
The test system of experiment [7] is MDA-N.
For experiment [8], the system named is CCRF-CEM leukemia.
For experiment [9], the system named is CAKI-1 renal.
Experiment [10] deals with MALME-3M melanoma.
The subject of experiment [11] is SF-295 CNS.
Experiment [12] concerns SK-MEL-2 melanoma.
Experiment [13] relates to HOP-62 NSCLC.
For experiment [14], the system named is 786-0 renal.
The subject of experiment [15] is SK-MEL-5 melanoma.
The test system of experiment [16] is MOLT-4 leukemia.
For experiment [17], the system named is UACC-257 melanoma.
In experiment [18] the test system is SF-539 CNS.
In experiment [19] the test system is M14 melanoma.
For experiment [20], the system named is BT-549 breast.

The structures appear in SMILES notation.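 Compound exposure: 48 hours, 5 concentrations, 96-well plates. At the TGI there is no net growth.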

As for `COc1ccc2cc(CN3CCC(C4CCN(Cc5ccc6cc(OC)ccc6c5)CC4)CC3)ccc2c1`, the TGI in experiment [1] worked out at 7.98 µM; in experiment [2], 4.19 µM; in [3] it was 18.2 µM; in experiment [4], 29.8 µM; in [5], 11.8 µM; in experiment [6] it was 48.7 µM. Also, the total growth inhibition concentration (TGI) in experiment [7] worked out at 4.06 µM; in experiment [8], 4.33 µM; in [9], 8.42 µM; in experiment [10], 4.51 µM; in experiment [11], 7.57 µM; in experiment [12] it was 12.7 µM. For the same compound, the TGI in experiment [13] is 22.7 µM; in [14] it was 4.23 µM; in [15] it was 3.12 µM; in experiment [16], 5.11 µM; in experiment [17] it was 3.88 µM; in experiment [18], above 100 µM.
In the case of `CO[C@@H]1C[C@H]2[C@@H]3CC[C@H]([C@H](C)COC(C)=O)[C@@]3(C)CC[C@@H]2[C@@]2(C)CC[C@H]3C[C@]312`, the TGI in [1], in [2], in experiment [3], in experiment [4], in [5] and in experiment [6] was above 100 µM in each case. Besides, the TGI in [7], in experiment [8], in experiment [9], in [10], in experiment [11] and in [19] was above 100 µM in each case. Also, the TGI in experiment [13], in experiment [14], in experiment [15], in experiment [16], in experiment [17] and in experiment [18] was above 100 µM in each case.
As to `CC(=O)NC1CC(C(C)(C)NC(C)=O)CC=C1C` (centres undefined), the total growth inhibition concentration (TGI) in experiment [1], in experiment [20], in [3], in experiment [4], in experiment [6] and in experiment [7] was above 100 µM each time. Moreover, the total growth inhibition concentration (TGI) in experiment [8], in [11], in experiment [19], in [13], in experiment [14] and in experiment [15] was above 100 µM throughout. For the same compound, the TGI in experiment [16], in experiment [17] and in [18] was above 100 µM each time.
For the compound `O=c1oc2ccccc2c(O)c1C(c1cccc(C(c2c(O)c3ccccc3oc2=O)c2c(O)c3ccccc3oc2=O)c1)c1c(O)c2ccccc2oc1=O`, the concentration for total growth inhibition (TGI) in [1] is above 100 µM; in experiment [20] it was above 100 µM; in [2] it was 76.6 µM; in experiment [4], above 100 µM; in experiment [5], above 100 µM; in experiment [6], above 100 µM. For the same compound, the concentration for total growth inhibition (TGI) in experiment [7] is above 100 µM; in experiment [8], 69.3 µM; in [9] it was 49.5 µM; in experiment [11], above 100 µM; in [19], above 100 µM; in [12], above 100 µM. The TGI in [13] was above 100 µM; in experiment [14], 45.1 µM; in experiment [15], 95.7 µM; in [16], 63.3 µM; in experiment [17] it was above 100 µM; in [18] it was 53.9 µM.
As to `COC1(OC)N=C(N)C2(C#N)C(C)=C3NCN(C)N=C3C12C#N` (centres undefined), the concentration for total growth inhibition (TGI) in experiment [1], in experiment [2], in experiment [4], in [5], in experiment [6] and in [7] was above 100 µM each time. The total growth inhibition concentration (TGI) in [9], in experiment [10], in [11], in experiment [19], in [12] and in experiment [13] was above 100 µM in each case. Moreover, the concentration for total growth inhibition (TGI) in [14], in [15], in experiment [17] and in experiment [18] was above 100 µM in each case.
As to `CN(C(=S)Cc1ccc(Cl)c(Cl)c1)C1CCCC[C@@H]1N1CCCC1` (some centres undefined), the TGI is 48.4 µM in [1]; above 100 µM in experiment [20]; above 100 µM in experiment [2]; above 100 µM in experiment [3]; above 100 µM in experiment [4]; above 100 µM in experiment [6]. The concentration for total growth inhibition (TGI) in [7] was 36.2 µM; in experiment [9], above 100 µM; in [11] it was 36.2 µM; in [19] it was 37.2 µM; in experiment [12], above 100 µM; in experiment [13], above 100 µM. In addition, the total growth inhibition concentration (TGI) is 55 µM in [14], 33 µM in [15], above 100 µM in experiment [16] and above 100 µM in experiment [18].
`CC(C)[C@@H]1CC[C@@H](C)C[C@H]1OC(=O)/C=C1\C(C(=O)O[C@@H]2C[C@H](C)CC[C@H]2C(C)C)[C@H]2C=C[C@@H]1O2` (some centres undefined): the TGI in experiment [1], in [2], in [3], in experiment [4], in [5] and in [6] was above 100 µM each time. Besides, the TGI in [7], in experiment [8], in [9], in [10], in experiment [11] and in experiment [19] was above 100 µM each time. Besides, the total growth inhibition concentration (TGI) in experiment [13], in experiment [14], in [15], in [16], in experiment [17] and in experiment [18] was above 100 µM each time.
As for `CC(=O)c1c2c(cc3c1CC1(Cc4cc5c(cc4C1)C(=O)CCC5)C3)CCCC2` (centres undefined), the TGI in [1] was above 100 µM; in experiment [2], 13.2 µM; in experiment [3], above 100 µM; in [4], above 87.2 µM; in [5], above 88.3 µM; in experiment [6] it was above 83.5 µM. In addition, the total growth inhibition concentration (TGI) in experiment [7] was 12.9 µM; in [8], 5.01 µM; in experiment [9] it was above 100 µM; in experiment [10], above 100 µM; in experiment [11], above 45.5 µM; in experiment [19] it was above 100 µM. For the same compound, the TGI in [12] stood at 7.76 µM; in experiment [13] it was 43.4 µM; in experiment [14], 33.1 µM; in experiment [15], 7.38 µM; in [16], 7.96 µM; in [17], 15.4 µM. Further, the concentration for total growth inhibition (TGI) in [18] turned out to be 13.6 µM.
For `Cc1ccc2c(c1)C=CC1(O2)N(c2ccccc2)C(=S)OC1(C)C` (centres undefined), the TGI in experiment [1], in experiment [20], in [2], in experiment [3], in [4] and in experiment [5] was above 100 µM each time. The total growth inhibition concentration (TGI) in experiment [6] is above 100 µM; in experiment [7], 94.3 µM; in experiment [8] it was above 100 µM; in experiment [9], above 100 µM; in experiment [11] it was above 100 µM; in [19], above 100 µM. Besides, the TGI in [12], in [13], in [14], in experiment [15], in experiment [16] and in experiment [17] was above 100 µM throughout.
`O=C(Sc1n[nH]c(=O)[nH]c1=O)c1cccc2nc3ccccc3nc12`: the concentration for total growth inhibition (TGI) in experiment [1] was above 100 µM; in [20] it was above 100 µM; in experiment [2], above 100 µM; in experiment [3], above 100 µM; in experiment [4], above 100 µM; in experiment [5], 77.8 µM. The total growth inhibition concentration (TGI) in experiment [7] is 28.6 µM; in [8], above 100 µM; in [9], above 100 µM; in experiment [10], 24.8 µM; in experiment [11], above 100 µM; in experiment [19] it was above 100 µM. The total growth inhibition concentration (TGI) is above 100 µM in experiment [12]; above 100 µM in experiment [14]; 14.5 µM in [15]; above 100 µM in [16]; 39 µM in [17]; above 100 µM in experiment [18].
On to `CC[C@@H]([C@H](O)c1ccccc1Cl)[N+](=O)[O-]`, for which the total growth inhibition concentration (TGI) in experiment [1], in [20], in experiment [2], in experiment [3], in [4] and in experiment [5] was above 100 µM in each case. The TGI in experiment [6], in experiment [7], in experiment [8], in experiment [9], in [11] and in experiment [19] was above 100 µM in each case. Also, the total growth inhibition concentration (TGI) in experiment [12], in experiment [13], in experiment [14], in experiment [15], in experiment [17] and in experiment [18] was above 100 µM in each case.
Take `CC1(C)OC[C@H](COCOP2(=O)Oc3ccc4ccccc4c3-c3c(ccc4ccccc34)O2)O1`: the TGI in experiment [1] was 29.7 µM; in experiment [20], 31 µM; in experiment [5], above 100 µM; in experiment [6], 27.6 µM; in experiment [7], 26.8 µM; in experiment [8], 84.8 µM. The total growth inhibition concentration (TGI) in [10] is 37.2 µM; in [11], 32.2 µM; in experiment [19], 32 µM; in experiment [13] it was 40 µM; in experiment [14] it was 81.6 µM; in experiment [15], 73 µM. The TGI in [16] was determined as 41.4 µM; in [18] it was 39.8 µM.
`COc1ccc2nc3n(c2c1)C(c1c(F)cccc1F)SC3` (centres undefined): the TGI was above 100 µM in experiment [1]; above 100 µM in [20]; above 100 µM in experiment [2]; above 100 µM in [3]; 55 µM in experiment [4]; 87.7 µM in experiment [5]. Moreover, the TGI in experiment [6], in experiment [7], in experiment [8], in [9], in experiment [11] and in experiment [19] was above 100 µM throughout. In addition, the TGI in [12] was 74.9 µM; in [13], above 100 µM; in experiment [14], above 100 µM; in experiment [15], above 100 µM; in [16], above 100 µM; in experiment [17] it was above 100 µM. In addition, in experiment [18], the TGI is above 100 µM.
With `Cc1ccc2c(n1)NC(=O)C(Cc1ccccc1)(N=[N+]=[N-])C2=O` (centres undefined), the TGI in experiment [1], in [20], in experiment [3], in experiment [6], in experiment [7] and in experiment [8] was above 100 µM each time. Besides, the TGI in experiment [9], in experiment [10], in [11], in experiment [19], in experiment [13] and in experiment [14] was above 100 µM throughout. Further, the TGI in experiment [16], in [17] and in experiment [18] was above 100 µM in each case.
Take `C/C(O)=C(\C=NC(=S)c1cccnc1)C(=O)Nc1ccccc1C`: the TGI in experiment [1], in experiment [20], in experiment [2], in experiment [3], in [4] and in [5] was above 100 µM each time. In addition, the total growth inhibition concentration (TGI) in [6], in experiment [7], in experiment [8], in [9], in [11] and in experiment [19] was above 100 µM throughout. Besides, the total growth inhibition concentration (TGI) in experiment [12], in [13], in experiment [14], in [15], in [16] and in experiment [17] was above 100 µM each time. The same compound had a concentration for total growth inhibition (TGI) in [18] above 100 µM.

The TGI is the concentration at which net growth stops.
